Values after ≈ are worked out from the molar mass of the structure shown.
Assays:
[1] = system: strain IIIB of HIV-1; assay: Inhibition of HIV-1 replication in MT4 cells, MTT assay; assay type: cell-based
Description: The enhancing effect of compound 3 on anti-viral agents was studied by checkerboard combination studies exposing HIV infected cells to 0-3 μM anti-viral agent in the absence or presence of compound 3 in concentrations from 0 to 6 μM. Each experiment was repeated in tripleduplicate. MIC values represent the mean values of two separate experiments.
The HIV-1 strain HTLV-IIIB were propagated in H9 cells at 37° C., 5% CO2 using RPMI 1640 with 10% heat-inactivated foetal calf serum (FCS) and antibiotics (growth medium). Culture supernatant was filtered ([…]), aliquotted, and stored at −80° C. until use. The HIV-1 strain was obtained from NIH AIDS Research and Reference Program.
(§1) Compounds were examined for possible antiviral activity against strain IIIB of HIV-1 using MT4 cells as target cells. MT4 cells were incubated with virus (0.005 MOI) and growth medium containing the test dilutions of compound(s) for six days in parallel with virus-infected and uninfected control cultures without compound added. Expression of HIV in the cultures was indirectly quantified using the MTT assay as previously described. Compounds mediating less than 30% reduction of HIV expression were considered without biological activity. Compounds were tested in parallel for cytotoxic effect in uninfected MT4 cultures containing the test dilutions of compound as described above. Cultures for test of both antiviral activity and cytotoxic effect were set up in tripleduplicates, […] per culture in micro titre plates. A 30% inhibition of cell growth relative to control cultures was considered significant. The 50% inhibitory concentration was determined by interpolation from the plots of percent inhibition versus concentration of compound.
EC50 is defined as the effective concentration that inhibits 50% of viral production, 50% of viral infectivity, or 50% of the virus-induced cytopathic effect.

[2] = system: Enterococci sp.; assay: MIC on multiresistant and susceptible clinical isolates of Enterococci (Table 2); assay type: cell-based, Enterococcus faecalis and Enterococcus faecium; conditions: 8 multiresistant (VanA, VanB, HLAR, BLR,CR) and 8 susceptible isolates
Description: (§2) Cell growth was tested using the Minimal Inhibitory Concentration (MIC) susceptibility tests by use of the microdilution broth method in accordance to the NCCLS Guidelines (NCCLS Guidelines, Methods for Dilution Antimicrobial Susceptibility Tests for Bacteria That Grow Aerobically; Approved Standard, Sixth Edition, Volume 23; Number 2). The minimum inhibitory concentration (MIC), is defined as the lowest concentration of drug which inhibits growth of the test organism, in the sense that no visible growth is detected (total inhibition of growth). In example 2, MIC of the compounds used on fungal microorgansims was determined from the IC90 measurements according to NCCLS Guidelines.
A log phase culture of bacteria was diluted with fresh pre-warmed Mueller-Hinton medium and adjusted to a defined OD at 600 nm in order to give a final concentration of 1×10^4-5 bacteria/ml medium. The bacterial culture was transferred to microtiter-plates and culture was added to each well. Drug was added to the bacterial culture in the wells as two-fold dilution series of drug in order to give final concentrations ranging from 0.03 to 128 μg/ml. Trays were incubated at 37° C. by shaking in a robot analyzer, PowerWavex, software KC^4′ Kebo. Lab, Copenhagen, for 16 h and optical densities were measured at 600 nm during the incubation time in order to record growth curves. […]

[3] = system: Multiresistant clinical isolates E. coli; assay: Maximal reversal of resistance and synergistic effect (Table 4c); assay type: cell-based; conditions: E. coli multiresistant isolates
Description: The maximal obtained reversal of resistance and synergistic effect was tested as previously described.
Strains: Multiresistant clinical isolates E. coli, Ten strains in each group.

[4] = Cytotoxic effect in uninfected MT4 cultures; assay type: cell-based; conditions: human, uninfected MT4 cells; single agent; uninfected MT4
Description: as §1
(§3) CC50 is defined as the inhibitory concentration that reduces cellular growth or viability of uninfected cells by 50%.

[5] = system: MT4 cells; assay: Cytotoxic effect in uninfected MT4 cultures; assay type: cell-based; conditions: at the concentrations used
Description: as §1, §3

[6] = system: Gram negative sp.; assay: MIC on multiresistant and susceptible clinical isolates (Table 1b); assay type: cell-based; conditions: 8 multiresistant and 8 susceptible isolates
Description: as §2
(§4) A log phase culture of bacteria was diluted with fresh pre-warmed Mueller-Hinton medium and adjusted to a defined OD at 600 nm in order to give a final concentration of 1×10^4-5 bacteria/ml medium. The bacterial culture was transferred to microtiter-plates and culture was added to each well. Drug was added to the bacterial culture in the wells as two-fold dilution series of drug in order to give final concentrations ranging from 0.03 to 128 μg/ml. Trays were incubated at 37° C. by shaking in a robot analyzer, PowerWavex, software KC^4′ Kebo. Lab, Copenhagen, for 16 h and optical densities were measured at 600 nm during the incubation time in order to record growth curves. Wells containing bacterial culture without drug were used as controls to ensure correct inoculum size and bacterial growth during the incubation. Cultures were tested in order to detect contaminations. Each experiment was repeated in triplicate. MIC values represent the mean values of two separate triplicate experiments. Intra- and interassay variation was <5%.
(§5) Clinically relevant human bacterial isolates of Staphylococci, Streptococci, Micrococci and Gram negative species was cultured and assayed as described above for susceptibility towards the compounds listed in table 1b.

[7] = system: Staphylococci, Micrococci. Including MRSA; assay: as above; assay type: cell-based; conditions: Micrococci incl. MRSA, 8 multiresistant and 8 susceptible isolates
Description: as §2, §4, §5

[8] = system: Streptococci; assay: as above; assay type: cell-based; conditions: 8 multiresistant and 8 susceptible isolates
Description: as §2, §4, §5

[9] = system: E. faecalis; assay: MIC, microdilution broth, multiresistant clinical isolates (Table 1A); assay type: cell-based; conditions: Enterococcus faecalis; ten multiresistant clinical isolates; read-out: Median MIC E. faecalis
Description: as §2
as §4, with “Drug was added to the bacterial culture in the wells as two-fold dilution series of drug in order to give final concentrations ranging from 0.03 to 128 μg/ml.” left out, “triplicate.” for “triplicate. MIC values represent the mean values of two separate triplicate experiments. Intra- and interassay variation was <5%.”
(§6) Ten strains in each test group.

[10] = system: S. aureus; assay: as above; assay type: cell-based; conditions: Staphylococcus aureus; ten multiresistant clinical isolates; read-out: Median MIC S. aureus
Description: as §2
as §4, with “Drug was added to the bacterial culture in the wells as two-fold dilution series of drug in order to give final concentrations ranging from 0.03 to 128 μg/ml.” left out, “triplicate.” for “triplicate. MIC values represent the mean values of two separate triplicate experiments. Intra- and interassay variation was <5%.”
as §6

[11] = system: E. faecium; assay: as above; assay type: cell-based; conditions: Enterococcus faecium; ten multiresistant clinical isolates; read-out: Median MIC E. faecium
Description: as §2
as §4, with “Drug was added to the bacterial culture in the wells as two-fold dilution series of drug in order to give final concentrations ranging from 0.03 to 128 μg/ml.” left out, “triplicate.” for “triplicate. MIC values represent the mean values of two separate triplicate experiments. Intra- and interassay variation was <5%.”
as §6

[12] = system: E. coli; assay: as above; assay type: cell-based; conditions: Escherichia coli; ten multiresistant clinical isolates; read-out: Median MIC E. coli
Description: as §2
as §4, with “Drug was added to the bacterial culture in the wells as two-fold dilution series of drug in order to give final concentrations ranging from 0.03 to 128 μg/ml.” left out, “triplicate.” for “triplicate. MIC values represent the mean values of two separate triplicate experiments. Intra- and interassay variation was <5%.”
as §6

[13] = system: S. epidermidis; assay: as above; assay type: cell-based; conditions: Staphylococcus epidermidis; ten multiresistant clinical isolates; read-out: Median MIC S. epidermidis
Description: as §2
as §4, with “Drug was added to the bacterial culture in the wells as two-fold dilution series of drug in order to give final concentrations ranging from 0.03 to 128 μg/ml.” left out, “triplicate.” for “triplicate. MIC values represent the mean values of two separate triplicate experiments. Intra- and interassay variation was <5%.”
as §6

In the case of `Clc1ccc2c(c1)/C(=C/CCC1CCNCC1)c1ccccc1S2` [Compound 3], the EC50 ([1]; Human immunodeficiency virus 1, IIIB, 144 h, single agent, MT4 cells, six days, read-out: EC50) is reported as greater than 4 µM, the “Antiviral effect alone” value ([1]; at the concentrations used) is reported as “no antiviral or cytotoxic effect” and the “Enhancement of the antiviral effect of AZT” value ([1]; combination of compound 3 and AZT) is reported as 5 time. For the same compound, the “MIC Mean (range)” value [2] was 0.125 (0.06-0.125) μ/ml, the “Maximal reversal of resistance: concentration of compound” value [3] was 0.6 µg/mL and the CC50 at 6 days [4] was greater than 4 µM. The “Cytotoxic effect alone” value [5] was “no antiviral or cytotoxic effect”, the “MIC Mean” value [6] was 3 µg/mL (≈ 8.43 µM) and the “MIC Mean” value [7] was 0.25 µg/mL (≈ 0.702 µM). The “MIC Mean” value [8] was 0.25 µg/mL (≈ 0.702 µM), the MIC [9] was 0.1 µg/mL (≈ 0.281 µM) and the MIC [10] was 2 µg/mL (≈ 5.62 µM). It also gave an MIC [11] of 0.1 µg/mL (≈ 0.281 µM), an MIC [12] of 3 µg/mL (≈ 8.43 µM) and an MIC [13] of 1 µg/mL (≈ 2.81 µM).
